Columns and labels:
[1] = DRUGMATRIX: Nicotinic Acetylcholine radioligand binding (ligand: [125I] Epibatidine); type: cell membranes, Membrane; settings: imr-32; Not Active = under 50% inhibition at 10 µM
[2] = molecular target: Sigma non-opioid intracellular receptor 1 (Homo sapiens, UniProt Q99720); test: DRUGMATRIX: Sigma1 radioligand binding (ligand: [3H] Haloperidol); type: cell membranes, Jurkat, Membrane; settings: jurkat; Not Active = under 50% inhibition at 10 µM
Acetylcholinesterase = Acetylcholinesterase (Homo sapiens, UniProt P22303); test: DRUGMATRIX: Acetylcholinesterase enzyme inhibition (substrate: acetylthiocholine); type: cell-based, HEK293; settings: Not Active = under 50% inhibition at 10 µM
[3] = DRUGMATRIX: Atrial Natriuretic Factor (ANF) radioligand binding (ligand: [125I] ANF (rat)); type: cell membranes, Cavia porcellus, Dunkin-Hartley, Adrenal gland, Membrane; settings: Not Active = under 50% inhibition at 10 µM
[4] = molecular target: 5-hydroxytryptamine receptor 1B (Rattus norvegicus, UniProt P28564); type: cell membranes, Wistar, Cerebral cortex, Membrane; also: in other assays of this panel Not Active means under 50% inhibition at 10 µM
D(3) dopamine receptor = D(3) dopamine receptor (Homo sapiens, UniProt P35462); test: DRUGMATRIX: Dopamine D3 radioligand binding (ligand: [3H] Spiperone); type: cell membranes, CHO, Membrane; settings: cho
Chain of D(3) dopamine receptor (P35462 whole entry): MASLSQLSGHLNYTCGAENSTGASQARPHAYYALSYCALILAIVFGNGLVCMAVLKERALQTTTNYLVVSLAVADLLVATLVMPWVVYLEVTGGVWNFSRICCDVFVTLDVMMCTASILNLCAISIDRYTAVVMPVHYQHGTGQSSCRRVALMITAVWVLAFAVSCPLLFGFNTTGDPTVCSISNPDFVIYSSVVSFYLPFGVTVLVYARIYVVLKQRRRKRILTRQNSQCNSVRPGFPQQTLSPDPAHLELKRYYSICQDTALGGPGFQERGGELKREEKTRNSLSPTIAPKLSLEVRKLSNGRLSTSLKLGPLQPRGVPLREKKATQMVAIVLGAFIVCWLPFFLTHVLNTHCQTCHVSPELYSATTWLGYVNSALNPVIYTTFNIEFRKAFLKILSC

Chain of Sigma non-opioid intracellular receptor 1 (Q99720 whole entry): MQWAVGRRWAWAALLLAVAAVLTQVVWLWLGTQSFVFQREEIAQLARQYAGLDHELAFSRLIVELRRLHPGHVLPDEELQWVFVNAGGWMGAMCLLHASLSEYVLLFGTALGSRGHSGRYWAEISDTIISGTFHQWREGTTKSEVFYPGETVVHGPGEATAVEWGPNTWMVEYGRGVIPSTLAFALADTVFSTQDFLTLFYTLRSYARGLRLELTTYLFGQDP
Chain of 5-hydroxytryptamine receptor 1B (P28564 whole entry): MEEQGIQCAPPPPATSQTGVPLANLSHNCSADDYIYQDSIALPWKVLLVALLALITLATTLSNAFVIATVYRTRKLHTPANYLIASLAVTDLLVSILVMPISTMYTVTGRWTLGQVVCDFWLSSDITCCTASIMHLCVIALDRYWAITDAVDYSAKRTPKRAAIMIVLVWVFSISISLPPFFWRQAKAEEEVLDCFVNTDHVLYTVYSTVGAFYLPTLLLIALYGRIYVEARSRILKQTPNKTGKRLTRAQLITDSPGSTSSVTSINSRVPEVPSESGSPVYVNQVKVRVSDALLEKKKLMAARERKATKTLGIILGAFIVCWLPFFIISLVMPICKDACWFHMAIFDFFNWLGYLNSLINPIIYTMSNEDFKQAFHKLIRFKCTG
Chain of Acetylcholinesterase (P22303 whole entry): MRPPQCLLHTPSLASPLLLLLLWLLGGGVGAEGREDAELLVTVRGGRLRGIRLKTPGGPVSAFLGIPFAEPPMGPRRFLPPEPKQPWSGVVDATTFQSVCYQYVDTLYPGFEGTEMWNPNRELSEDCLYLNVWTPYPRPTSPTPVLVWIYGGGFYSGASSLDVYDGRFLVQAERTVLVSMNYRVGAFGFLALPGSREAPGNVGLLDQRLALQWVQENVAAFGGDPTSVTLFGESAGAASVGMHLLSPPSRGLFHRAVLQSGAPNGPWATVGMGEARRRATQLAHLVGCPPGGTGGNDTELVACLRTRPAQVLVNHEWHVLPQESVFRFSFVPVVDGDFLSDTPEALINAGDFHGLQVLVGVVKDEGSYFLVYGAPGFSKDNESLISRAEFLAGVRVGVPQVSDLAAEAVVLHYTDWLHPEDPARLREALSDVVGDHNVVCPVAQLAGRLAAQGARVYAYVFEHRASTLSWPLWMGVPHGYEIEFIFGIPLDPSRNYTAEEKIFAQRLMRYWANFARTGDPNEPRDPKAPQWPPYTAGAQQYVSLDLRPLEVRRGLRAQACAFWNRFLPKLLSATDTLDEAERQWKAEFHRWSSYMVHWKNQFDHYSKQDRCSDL

CC(C)CN(C[C@@H](O)[C@H](Cc1ccccc1)NC(=O)O[C@H]1CCOC1)S(=O)(=O)c1ccc(N)cc1
IC50 [1]: Not Active | Ki [1]: Not Active | IC50 [2]: Not Active | IC50 (Acetylcholinesterase; hek293): Not Active | IC50 [3]: Not Active | Ki [3]: Not Active | IC50 [4]: Not Active | IC50 (D(3) dopamine receptor): Not Active

c1ccc(Nc2ccc(Nc3ccccc3)cc2)cc1
IC50 [1]: Not Active | Ki [1]: Not Active | IC50 [2]: Not Active | IC50 (Acetylcholinesterase; hek293): Not Active | IC50 [3]: Not Active | Ki [3]: Not Active | IC50 [4]: Not Active | IC50 (D(3) dopamine receptor): Not Active

COc1cc2c3cc1Oc1cc(ccc1O)C[C@@H]1c4c(cc(OC)c(O)c4Oc4ccc(cc4)C[C@@H]3N(C)CC2)CC[N+]1(C)C.[Cl-]
IC50 [1]: Not Active | Ki [1]: Not Active | IC50 [2]: Not Active | IC50 (Acetylcholinesterase; hek293): Not Active | IC50 [3]: Not Active | Ki [3]: Not Active | IC50 [4]: Not Active | IC50 (D(3) dopamine receptor): Not Active

NC(=O)N1c2ccccc2CCc2ccccc21
IC50 [1]: Not Active | Ki [1]: Not Active | IC50 [2]: Not Active | IC50 (Acetylcholinesterase; hek293): Not Active | IC50 [3]: Not Active | Ki [3]: Not Active | IC50 [4]: Not Active | IC50 (D(3) dopamine receptor): Not Active

O=C1CC[C@@H](N2C(=O)c3ccccc3C2=O)C(=O)N1
IC50 [1]: Not Active | Ki [1]: Not Active | IC50 [2]: Not Active | IC50 (Acetylcholinesterase; hek293): Not Active | IC50 [3]: Not Active | Ki [3]: Not Active | IC50 [4]: Not Active | IC50 (D(3) dopamine receptor): Not Active

Cc1onc(O)c1CC(N)C(=O)O (racemic) [(R,S)-AMPA]
IC50 [1]: Not Active | Ki [1]: Not Active | IC50 [2]: Not Active | IC50 (Acetylcholinesterase; hek293): Not Active | IC50 [3]: Not Active | Ki [3]: Not Active | IC50 [4]: Not Active | IC50 (D(3) dopamine receptor): Not Active

Cc1ccc2cc3c(ccc4ccccc43)c3c2c1CC3 [3-METHYLCHOLANTHRENE]
IC50 [1]: Not Active | Ki [1]: Not Active | IC50 [2]: Not Active | IC50 (Acetylcholinesterase; read-out: IC50): 22.7 µM | IC50 [3]: Not Active | Ki [3]: Not Active | IC50 [4]: Not Active | IC50 (D(3) dopamine receptor): Not Active

CC[C@@]1(O)C[C@H](O[C@H]2C[C@H](N(C)C)[C@H](O[C@H]3C[C@H](O)[C@H](O[C@H]4CCC(=O)[C@H](C)O4)[C@H](C)O3)[C@H](C)O2)c2c(cc3c(c2O)C(=O)c2c(O)cccc2C3=O)[C@H]1C(=O)OC [ACLARUBICIN]
IC50 [1]: Not Active | Ki [1]: Not Active | IC50 [2]: Not Active | IC50 (Acetylcholinesterase; hek293): Not Active | IC50 [3]: Not Active | Ki [3]: Not Active | IC50 [4]: Not Active | IC50 (D(3) dopamine receptor): Not Active

Nc1nc2c(ncn2COCCO)c(=O)[nH]1 [ACYCLOVIR]
IC50 [1]: Not Active | Ki [1]: Not Active | IC50 [2]: Not Active | IC50 (Acetylcholinesterase; hek293): Not Active | IC50 [3]: Not Active | Ki [3]: Not Active | IC50 [4]: Not Active | IC50 (D(3) dopamine receptor): Not Active

Cc1c(C)c2c(c(C)c1O)CC[C@@](C)(CCC[C@H](C)CCC[C@H](C)CCCC(C)C)O2 [ALPHA-TOCOPHEROL]
IC50 [1]: Not Active | Ki [1]: Not Active | IC50 [2]: Not Active | IC50 (Acetylcholinesterase; hek293): Not Active | IC50 [3]: Not Active | Ki [3]: Not Active | IC50 [4]: Not Active | IC50 (D(3) dopamine receptor): Not Active

CN(C)c1nc(N(C)C)nc(N(C)C)n1 [ALTRETAMINE]
IC50 [1]: Not Active | Ki [1]: Not Active | IC50 [2]: Not Active | IC50 (Acetylcholinesterase; hek293): Not Active | IC50 [3]: Not Active | Ki [3]: Not Active | IC50 [4]: Not Active | IC50 (D(3) dopamine receptor): Not Active

Nc1c(Br)cc(Br)cc1CN[C@H]1CC[C@H](O)CC1 [AMBROXOL]
IC50 [1]: Not Active | Ki [1]: Not Active | IC50 [2]: Not Active | IC50 (Acetylcholinesterase; hek293): Not Active | IC50 [3]: Not Active | Ki [3]: Not Active | IC50 [4]: Not Active | IC50 (D(3) dopamine receptor): Not Active

NCCCCCC(=O)O [AMINOCAPROIC ACID]
IC50 [1]: Not Active | Ki [1]: Not Active | IC50 [2]: Not Active | IC50 (Acetylcholinesterase; hek293): Not Active | IC50 [3]: Not Active | Ki [3]: Not Active | IC50 [4]: Not Active | IC50 (D(3) dopamine receptor): Not Active

CCC1(c2ccc(N)cc2)CCC(=O)NC1=O (stereo not drawn) [AMINOGLUTETHIMIDE]
IC50 [1]: Not Active | Ki [1]: Not Active | IC50 [2]: Not Active | IC50 (Acetylcholinesterase; hek293): Not Active | IC50 [3]: Not Active | Ki [3]: Not Active | IC50 [4]: Not Active | IC50 (D(3) dopamine receptor): Not Active

Cc1ccc(/N=C/N(C)/C=N/c2ccc(C)cc2C)c(C)c1 [AMITRAZ]
IC50 [1]: Not Active | Ki [1]: Not Active | IC50 [2]: Not Active | IC50 (Acetylcholinesterase; hek293): Not Active | IC50 [3]: Not Active | Ki [3]: Not Active | IC50 [4]: Not Active | IC50 (D(3) dopamine receptor): Not Active

CCOC(=O)C1=C(COCCN)NC(C)=C(C(=O)OC)C1c1ccccc1Cl (stereo not drawn) [AMLODIPINE]
IC50 [1]: Not Active | Ki [1]: Not Active | IC50 [2]: Not Active | IC50 (Acetylcholinesterase; hek293): Not Active | IC50 [3]: Not Active | Ki [3]: Not Active | IC50 [4]: Not Active | IC50 (D(3) dopamine receptor): Not Active

— ChEMBL document CHEMBL1909046, “DrugMatrix in vitro pharmacology data”
